# Tests used:
# [1] = biological target: voltage-gated sodium channel, site 2 (Rattus norvegicus, UniProt F1LQQ7+O08562+O88420+O88457+P04774+P04775+P08104+P15389+P15390+Q62968); assay: Inhibition of Sodium Channel, Site 2 at 10 µM in the Eurofins-Panlabs radioligand binding assay (Eurofins_assay_279510); format: protein assay; set-up: ligand concentration 5 nM, non-specific ligand with concentration 100 µM Veratridine, incubation time 60 min, incubation temperature 37 °C; conditions: male, Wistar, rat whole brain (except cerebellum) membranes, probe [3H] Batrachotoxinin, compound concentration 10 uM
# Rattus norvegicus [2] = species on record: Rattus norvegicus; assay: Inhibition of Glycine, Strychnine-Sensitive at 10 µM in the Eurofins-Panlabs radioligand binding assay (Eurofins_assay_239000); conditions: Compound concentration 10.0 uM
# Rattus norvegicus [3] = species on record: Rattus norvegicus; assay: GABAA, Ro-15-1788, Hippocampus Eurofins-Panlabs radioligand binding assay; set-up: ligand concentration 1 nM; conditions: Compound concentration 10.0 uM
# [4] = biological target: Glycogen synthase kinase-3 alpha (Homo sapiens, UniProt P49840); assay: GSK3A DiscoveRx kinase panel
# [5] = biological target: Serine/threonine-protein kinase Nek6 (Homo sapiens) (UniProt Q9HC98); assay: NEK6 DiscoveRx kinase panel; conditions: Compound concentration 1.0 uM
# Sequence of Serine/threonine-protein kinase Nek6 (Homo sapiens) (Q9HC98 whole entry, canonical isoform): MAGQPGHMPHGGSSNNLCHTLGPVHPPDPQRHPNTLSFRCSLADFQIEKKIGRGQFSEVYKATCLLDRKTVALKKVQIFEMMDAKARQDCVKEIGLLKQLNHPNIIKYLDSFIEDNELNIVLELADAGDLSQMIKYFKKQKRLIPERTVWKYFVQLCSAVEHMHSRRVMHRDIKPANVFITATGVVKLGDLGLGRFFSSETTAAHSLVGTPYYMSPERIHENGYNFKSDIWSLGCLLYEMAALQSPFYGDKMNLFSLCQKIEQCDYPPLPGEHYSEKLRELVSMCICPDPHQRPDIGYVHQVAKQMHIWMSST
# [6] = biological target: Casein kinase I isoform gamma-1 (Homo sapiens) (UniProt Q9HCP0); assay: CSNK1G1 DiscoveRx kinase panel; conditions: Compound concentration 1.0 uM
# [7] = biological target: G protein-coupled receptor kinase 4 (Homo sapiens) (UniProt P32298); assay: GRK4 DiscoveRx kinase panel; conditions: Compound concentration 1.0 uM
# Sequence of G protein-coupled receptor kinase 4 (Homo sapiens) (P32298 whole entry, looked up): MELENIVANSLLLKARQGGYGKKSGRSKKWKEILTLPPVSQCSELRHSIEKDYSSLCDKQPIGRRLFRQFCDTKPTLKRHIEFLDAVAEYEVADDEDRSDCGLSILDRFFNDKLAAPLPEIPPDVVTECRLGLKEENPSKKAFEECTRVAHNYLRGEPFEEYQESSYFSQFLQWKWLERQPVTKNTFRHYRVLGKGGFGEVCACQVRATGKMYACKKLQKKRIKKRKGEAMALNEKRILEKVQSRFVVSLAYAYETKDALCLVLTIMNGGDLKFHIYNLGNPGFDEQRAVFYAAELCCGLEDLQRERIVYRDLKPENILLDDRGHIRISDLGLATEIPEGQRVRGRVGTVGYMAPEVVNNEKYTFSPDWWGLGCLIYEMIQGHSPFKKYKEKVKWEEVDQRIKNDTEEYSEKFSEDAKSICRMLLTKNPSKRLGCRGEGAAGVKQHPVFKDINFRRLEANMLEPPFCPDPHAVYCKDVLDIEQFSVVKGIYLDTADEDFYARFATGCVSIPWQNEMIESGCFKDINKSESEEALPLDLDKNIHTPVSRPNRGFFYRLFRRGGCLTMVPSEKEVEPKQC
# [8] = biological target: Ribosomal protein S6 kinase alpha-2 (Homo sapiens) (UniProt Q15349); assay: RSK3(Kin.Dom.1-N-terminal) DiscoveRx kinase panel; conditions: Compound concentration 1.0 uM
# [9] = biological target: Calcium/calmodulin-dependent protein kinase type 1D (Homo sapiens) (UniProt Q8IU85); assay: CAMK1D DiscoveRx kinase panel; conditions: Compound concentration 1.0 uM
# [10] = biological target: Mitogen-activated protein kinase 12 (Homo sapiens) (UniProt P53778); assay: p38-gamma DiscoveRx kinase panel; conditions: Compound concentration 1.0 uM
# [11] = biological target: Tyrosine-protein kinase FRK (Homo sapiens) (UniProt P42685); assay: FRK DiscoveRx kinase panel; conditions: Compound concentration 1.0 uM
# [12] = biological target: Tyrosine-protein kinase ABL1 (Homo sapiens) (UniProt P00519); assay: ABL1-nonphosphorylated DiscoveRx kinase panel; conditions: Compound concentration 1.0 uM
# [13] = biological target: Mitogen-activated protein kinase kinase kinase 12 (Homo sapiens) (UniProt Q12852); assay: DLK DiscoveRx kinase panel; conditions: Compound concentration 1.0 uM
# [14] = biological target: Cyclin-dependent kinase-like 3 (Homo sapiens) (UniProt Q8IVW4); assay: CDKL3 DiscoveRx kinase panel; conditions: Compound concentration 1.0 uM
# Sequence of Cyclin-dependent kinase-like 3 (Homo sapiens) (Q8IVW4 whole entry, looked up): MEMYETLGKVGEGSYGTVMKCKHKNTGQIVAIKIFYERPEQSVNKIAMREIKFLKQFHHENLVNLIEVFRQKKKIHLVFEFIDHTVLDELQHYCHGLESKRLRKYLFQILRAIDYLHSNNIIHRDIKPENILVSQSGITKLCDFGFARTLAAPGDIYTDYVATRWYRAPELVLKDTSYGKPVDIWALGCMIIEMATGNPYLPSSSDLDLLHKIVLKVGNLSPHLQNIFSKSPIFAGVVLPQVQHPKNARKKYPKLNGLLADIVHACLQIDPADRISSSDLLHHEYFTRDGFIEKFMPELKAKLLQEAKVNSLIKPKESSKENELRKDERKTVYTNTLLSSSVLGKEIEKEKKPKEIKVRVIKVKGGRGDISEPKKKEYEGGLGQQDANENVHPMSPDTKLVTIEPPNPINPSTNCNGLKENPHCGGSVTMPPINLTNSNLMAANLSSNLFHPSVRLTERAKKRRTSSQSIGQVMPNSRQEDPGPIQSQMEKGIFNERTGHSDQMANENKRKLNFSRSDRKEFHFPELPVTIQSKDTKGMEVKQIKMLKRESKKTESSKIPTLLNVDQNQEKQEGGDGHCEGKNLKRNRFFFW
# [15] = biological target: Vascular endothelial growth factor receptor 1 (Homo sapiens) (UniProt P17948); assay: FLT1 DiscoveRx kinase panel; conditions: Compound concentration 1.0 uM
# Sequence of Vascular endothelial growth factor receptor 1 (Homo sapiens) (P17948 whole entry): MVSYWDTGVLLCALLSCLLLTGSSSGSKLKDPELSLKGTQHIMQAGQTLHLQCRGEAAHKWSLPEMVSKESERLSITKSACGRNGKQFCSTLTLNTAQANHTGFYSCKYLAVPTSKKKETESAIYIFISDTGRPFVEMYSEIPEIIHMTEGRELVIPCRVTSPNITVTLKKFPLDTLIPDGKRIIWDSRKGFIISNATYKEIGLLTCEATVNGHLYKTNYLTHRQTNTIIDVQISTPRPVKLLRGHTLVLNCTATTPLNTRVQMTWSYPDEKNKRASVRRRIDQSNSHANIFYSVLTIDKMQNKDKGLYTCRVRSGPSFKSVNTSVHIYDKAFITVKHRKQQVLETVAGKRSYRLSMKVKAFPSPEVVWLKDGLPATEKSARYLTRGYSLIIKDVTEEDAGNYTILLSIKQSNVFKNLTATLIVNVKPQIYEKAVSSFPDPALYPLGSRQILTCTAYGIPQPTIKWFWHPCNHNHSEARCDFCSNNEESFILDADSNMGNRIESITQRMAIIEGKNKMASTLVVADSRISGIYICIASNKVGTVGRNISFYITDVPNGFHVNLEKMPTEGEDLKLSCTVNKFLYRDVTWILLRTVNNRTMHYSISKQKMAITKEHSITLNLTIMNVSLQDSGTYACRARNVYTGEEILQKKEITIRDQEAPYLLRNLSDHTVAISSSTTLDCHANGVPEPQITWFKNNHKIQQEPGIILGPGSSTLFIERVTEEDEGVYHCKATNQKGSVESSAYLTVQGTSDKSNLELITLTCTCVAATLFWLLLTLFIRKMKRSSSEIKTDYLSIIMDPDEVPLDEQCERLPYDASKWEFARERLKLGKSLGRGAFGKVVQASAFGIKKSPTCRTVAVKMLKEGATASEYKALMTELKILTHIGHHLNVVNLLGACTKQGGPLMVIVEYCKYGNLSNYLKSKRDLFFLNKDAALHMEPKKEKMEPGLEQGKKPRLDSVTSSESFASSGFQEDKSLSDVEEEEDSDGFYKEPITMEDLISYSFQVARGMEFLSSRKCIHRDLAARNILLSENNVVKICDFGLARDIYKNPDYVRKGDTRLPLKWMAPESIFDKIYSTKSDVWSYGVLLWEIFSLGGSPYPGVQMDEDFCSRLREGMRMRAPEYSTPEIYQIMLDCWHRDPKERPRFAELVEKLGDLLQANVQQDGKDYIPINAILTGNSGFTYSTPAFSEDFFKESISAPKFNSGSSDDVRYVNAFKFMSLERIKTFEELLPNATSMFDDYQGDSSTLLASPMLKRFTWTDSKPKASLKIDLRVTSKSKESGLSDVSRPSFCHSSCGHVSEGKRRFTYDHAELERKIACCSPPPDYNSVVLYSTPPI
# [16] = biological target: Protein kinase C eta type (Homo sapiens) (UniProt P24723); assay: PRKCH DiscoveRx kinase panel; conditions: Compound concentration 1.0 uM
# [17] = biological target: Serine/threonine-protein kinase ULK1 (Homo sapiens) (UniProt O75385); assay: ULK1 DiscoveRx kinase panel; conditions: Compound concentration 1.0 uM
# [18] = system: eIF-2-alpha kinase GCN2 (Homo sapiens), Q9P2K8 [S808G]; assay: GCN2(Kin.Dom.2,S808G) DiscoveRx kinase panel; conditions: Compound concentration 1.0 uM
# [19] = biological target: MAP kinase-activated protein kinase 2 (Homo sapiens) (UniProt P49137); assay: MAPKAPK2 DiscoveRx kinase panel; conditions: Compound concentration 1.0 uM
# [20] = biological target: Activin receptor type-2B (Homo sapiens) (UniProt Q13705); assay: ACVR2B DiscoveRx kinase panel; conditions: Compound concentration 1.0 uM
# [21] = biological target: Mitogen-activated protein kinase 7 (Homo sapiens) (UniProt Q13164); assay: ERK5 DiscoveRx kinase panel; conditions: Compound concentration 1.0 uM
# [22] = biological target: Insulin-like growth factor 1 receptor (Homo sapiens) (UniProt P08069); assay: IGF1R DiscoveRx kinase panel; conditions: Compound concentration 1.0 uM
# [23] = biological target: Calcium/calmodulin-dependent protein kinase type 1G (Homo sapiens) (UniProt Q96NX5); assay: CAMK1G DiscoveRx kinase panel; conditions: Compound concentration 1.0 uM
# [24] = biological target: Aurora kinase C (Homo sapiens) (UniProt Q9UQB9); assay: AURKC DiscoveRx kinase panel; conditions: Compound concentration 1.0 uM
# [25] = biological target: Calcium/calmodulin-dependent protein kinase type II subunit delta (Homo sapiens) (UniProt Q13557); assay: CAMK2D DiscoveRx kinase panel; conditions: Compound concentration 1.0 uM
# [26] = biological target: Calcium/calmodulin-dependent protein kinase type II subunit gamma (Homo sapiens) (UniProt Q13555); assay: CAMK2G DiscoveRx kinase panel; conditions: Compound concentration 1.0 uM
# Sequence of Calcium/calmodulin-dependent protein kinase type II subunit gamma (Homo sapiens) (Q13555 whole entry): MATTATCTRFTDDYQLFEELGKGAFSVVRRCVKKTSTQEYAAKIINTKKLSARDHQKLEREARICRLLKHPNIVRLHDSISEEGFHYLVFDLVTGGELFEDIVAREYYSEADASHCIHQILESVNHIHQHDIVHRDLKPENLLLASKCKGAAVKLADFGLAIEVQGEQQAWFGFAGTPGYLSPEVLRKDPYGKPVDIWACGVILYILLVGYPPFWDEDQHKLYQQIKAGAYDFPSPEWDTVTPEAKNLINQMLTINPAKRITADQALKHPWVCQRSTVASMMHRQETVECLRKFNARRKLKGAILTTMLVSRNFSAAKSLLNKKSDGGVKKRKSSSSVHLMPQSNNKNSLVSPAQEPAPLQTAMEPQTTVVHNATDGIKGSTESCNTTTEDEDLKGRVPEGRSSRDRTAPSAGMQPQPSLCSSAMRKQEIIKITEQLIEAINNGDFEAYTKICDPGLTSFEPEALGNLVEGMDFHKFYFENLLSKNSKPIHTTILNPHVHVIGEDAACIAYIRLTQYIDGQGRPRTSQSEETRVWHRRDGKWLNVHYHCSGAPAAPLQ
# [27] = biological target: Cyclin-dependent kinase 7 (Homo sapiens) (UniProt P50613); assay: CDK7 DiscoveRx kinase panel; conditions: Compound concentration 1.0 uM
# [28] = biological target: Serine/threonine-protein kinase DCLK3 (Homo sapiens) (UniProt Q9C098); assay: DCAMKL3 DiscoveRx kinase panel; conditions: Compound concentration 1.0 uM
# [29] = biological target: Fibroblast growth factor receptor 2 (Homo sapiens) (UniProt P21802); assay: FGFR2 DiscoveRx kinase panel; conditions: Compound concentration 1.0 uM
# [30] = biological target: Tyrosine-protein kinase HCK (Homo sapiens) (UniProt P08631); assay: HCK DiscoveRx kinase panel; conditions: Compound concentration 1.0 uM
# [31] = biological target: Myosin light chain kinase, smooth muscle (Homo sapiens) (UniProt Q15746); assay: MYLK DiscoveRx kinase panel; conditions: Compound concentration 1.0 uM
# [32] = biological target: Serine/threonine-protein kinase Nek10 (Homo sapiens) (UniProt Q6ZWH5); assay: NEK10 DiscoveRx kinase panel; conditions: Compound concentration 1.0 uM
# [33] = biological target: Serine/threonine-protein kinase Nek3 (Homo sapiens) (UniProt P51956); assay: NEK3 DiscoveRx kinase panel; conditions: Compound concentration 1.0 uM
# [34] = biological target: Serine/threonine-protein kinase PLK4 (Homo sapiens) (UniProt O00444); assay: PLK4 DiscoveRx kinase panel; conditions: Compound concentration 1.0 uM
# [35] = biological target: Ribosomal protein S6 kinase alpha-4 (Homo sapiens) (UniProt O75676); assay: RPS6KA4(Kin.Dom.2-C-terminal) DiscoveRx kinase panel; conditions: Compound concentration 1.0 uM
# [36] = biological target: Ribosomal protein S6 kinase alpha-1 (Homo sapiens) (UniProt Q15418); assay: RSK1(Kin.Dom.2-C-terminal) DiscoveRx kinase panel; conditions: Compound concentration 1.0 uM
# Sequence of Ribosomal protein S6 kinase alpha-1 (Homo sapiens) (Q15418 whole entry): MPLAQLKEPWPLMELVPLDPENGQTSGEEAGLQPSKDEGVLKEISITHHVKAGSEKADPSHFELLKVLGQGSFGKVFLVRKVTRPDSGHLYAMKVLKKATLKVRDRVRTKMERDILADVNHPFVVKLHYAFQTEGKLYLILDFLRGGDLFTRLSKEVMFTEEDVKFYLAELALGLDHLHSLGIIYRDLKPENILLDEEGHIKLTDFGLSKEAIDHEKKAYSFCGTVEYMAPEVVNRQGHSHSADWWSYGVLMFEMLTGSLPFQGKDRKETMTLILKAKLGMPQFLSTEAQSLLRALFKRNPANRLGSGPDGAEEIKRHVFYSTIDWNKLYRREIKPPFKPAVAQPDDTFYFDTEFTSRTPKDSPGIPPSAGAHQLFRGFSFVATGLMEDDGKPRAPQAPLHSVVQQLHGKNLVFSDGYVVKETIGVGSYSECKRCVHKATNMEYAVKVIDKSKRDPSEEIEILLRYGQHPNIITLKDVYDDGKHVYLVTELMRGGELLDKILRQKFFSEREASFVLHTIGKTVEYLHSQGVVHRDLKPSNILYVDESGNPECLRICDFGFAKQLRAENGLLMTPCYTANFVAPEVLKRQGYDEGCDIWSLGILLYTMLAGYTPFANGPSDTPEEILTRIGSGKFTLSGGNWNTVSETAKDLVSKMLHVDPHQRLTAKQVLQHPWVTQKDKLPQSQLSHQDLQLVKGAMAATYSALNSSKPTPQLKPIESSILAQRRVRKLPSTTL
# [37] = biological target: Proto-oncogene tyrosine-protein kinase Src (Homo sapiens) (UniProt P12931); assay: SRC DiscoveRx kinase panel; conditions: Compound concentration 1.0 uM
# [38] = biological target: Mitogen-activated protein kinase kinase kinase 7 (Homo sapiens) (UniProt O43318); assay: TAK1 DiscoveRx kinase panel; conditions: Compound concentration 1.0 uM
# [39] = biological target: TRAF2 and NCK-interacting protein kinase (Homo sapiens) (UniProt Q9UKE5); assay: TNIK DiscoveRx kinase panel; conditions: Compound concentration 1.0 uM
# [40] = biological target: B2 bradykinin receptor (Homo sapiens) (UniProt P30411); assay: Bradykinin B2 Eurofins-Panlabs radioligand binding assay; conditions: Compound concentration 10.0 uM
# [41] = biological target: 5-hydroxytryptamine receptor 2B (Homo sapiens) (UniProt P41595); conditions: Compound concentration 10.0 uM
# [42] = biological target: 5-hydroxytryptamine receptor 3A (Homo sapiens) (UniProt P46098); conditions: Compound concentration 10.0 uM
# Sequence of 5-hydroxytryptamine receptor 3A (Homo sapiens) (P46098 whole entry): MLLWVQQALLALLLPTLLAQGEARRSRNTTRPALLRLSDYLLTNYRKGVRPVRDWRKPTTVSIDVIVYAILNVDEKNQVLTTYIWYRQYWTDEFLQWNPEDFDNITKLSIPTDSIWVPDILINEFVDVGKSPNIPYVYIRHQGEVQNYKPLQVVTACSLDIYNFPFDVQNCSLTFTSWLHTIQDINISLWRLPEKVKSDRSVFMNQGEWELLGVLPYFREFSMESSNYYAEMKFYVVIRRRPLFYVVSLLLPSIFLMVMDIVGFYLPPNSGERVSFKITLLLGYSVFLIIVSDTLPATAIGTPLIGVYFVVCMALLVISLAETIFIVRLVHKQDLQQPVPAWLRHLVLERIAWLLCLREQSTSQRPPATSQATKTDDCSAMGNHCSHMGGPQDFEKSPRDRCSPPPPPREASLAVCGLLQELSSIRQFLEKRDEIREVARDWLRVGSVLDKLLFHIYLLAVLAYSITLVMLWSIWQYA
# [43] = biological target: Mu-type opioid receptor (Homo sapiens) (UniProt P35372); conditions: Compound concentration 10.0 uM
# [44] = biological target: Alpha-1A adrenergic receptor (Homo sapiens) (UniProt P35348); conditions: Rattus norvegicus; Compound concentration 10.0 uM
# [45] = biological target: Beta-1 adrenergic receptor (Homo sapiens) (UniProt P08588); conditions: Compound concentration 10.0 uM
# [46] = biological target: Muscarinic acetylcholine receptor M4 (Homo sapiens) (UniProt P08173); conditions: Compound concentration 10.0 uM
# [47] = biological target: 5-hydroxytryptamine receptor 2C (Homo sapiens) (UniProt P28335); conditions: Compound concentration 10.0 uM
# Sequence of 5-hydroxytryptamine receptor 2C (Homo sapiens) (P28335 whole entry): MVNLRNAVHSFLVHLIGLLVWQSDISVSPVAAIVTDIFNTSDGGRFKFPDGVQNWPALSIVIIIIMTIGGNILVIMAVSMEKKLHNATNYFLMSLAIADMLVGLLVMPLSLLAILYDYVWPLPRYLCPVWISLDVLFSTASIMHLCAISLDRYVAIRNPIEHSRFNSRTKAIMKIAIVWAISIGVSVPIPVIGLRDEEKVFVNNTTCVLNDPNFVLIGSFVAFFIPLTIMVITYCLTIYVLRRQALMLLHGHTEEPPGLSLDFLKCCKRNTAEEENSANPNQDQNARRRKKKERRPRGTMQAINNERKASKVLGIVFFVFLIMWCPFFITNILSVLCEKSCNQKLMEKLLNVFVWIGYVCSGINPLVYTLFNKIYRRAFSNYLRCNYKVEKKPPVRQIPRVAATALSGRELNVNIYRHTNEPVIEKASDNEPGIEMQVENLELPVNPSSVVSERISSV
smiles,measurement,setting,value
COc1cnccc1Nc1nc(-c2nn(Cc3c(F)cc(OCCO)cc3F)c3ccccc23)ncc1OC,"inhibition at 60 min, 10 µM",[1],53%
same,inhibition,Rattus norvegicus [2],0%
same,inhibition,Rattus norvegicus [3],22%
same,Kd,[4],> 30 µM
same,residual activity,[4]; Compound concentration 1.0 uM,26%
same,residual activity,[5],70%
same,residual activity,[6],74%
same,residual activity,[7],79%
same,residual activity,[8],80%
same,residual activity,[9],83%
same,residual activity,[10],83%
same,residual activity,[11],85%
same,residual activity,[12],87%
same,residual activity,[13],87%
same,residual activity,[14],89%
same,residual activity,[15],89%
same,residual activity,[16],89%
same,residual activity,[17],90%
same,residual activity,[18],91%
same,residual activity,[19],92%
same,residual activity,[20],94%
same,residual activity,[21],94%
same,residual activity,[22],97%
same,residual activity,[23],99%
same,residual activity,[24],100%
same,residual activity,[25],100%
same,residual activity,[26],100%
same,residual activity,[27],100%
same,residual activity,[28],100%
same,residual activity,[29],100%
same,residual activity,[30],100%
same,residual activity,[31],100%
same,residual activity,[32],100%
same,residual activity,[33],100%
same,residual activity,[34],100%
same,residual activity,[35],100%
same,residual activity,[36],100%
same,residual activity,[37],100%
same,residual activity,[38],100%
same,residual activity,[39],100%
same,inhibition,[40],0%
same,inhibition,[41],1.96%
same,inhibition,[42],-8.58%
same,inhibition,[43],-4.25%
same,inhibition,[44],8%
same,inhibition,[45],4%
same,inhibition,[46],8%
same,inhibition,[47],21%
